For test [1], the target named is T1, Polo-like kinase 1 (PLK1) (Homo sapiens, UniProt P53350). As to the kind of experiment: (soak, […] Å); IC50 by TR-FRET kinase assay at […] ATP. It is filed as biochemical. Also noted: kinase domain, residues 33–345 (Ala33–Lys345), PLK1^WT; with DARPin 3H10 (crystal structure only).
Test [2] addresses T1, Polo-like kinase 1 (PLK1). As to the kind of experiment: TR-FRET kinase-activity assay, […] ATP. Type of test: biochemical. Details: kinase domain, residues 33–345, PLK1^WT.

SMILES strings stand for the structures.

Results on two compounds are retold here after PMC12809504, “Polo-like kinase 1–inhibitor co-complex structures via the surface-entropy reduction approach and a DARPin-assisted approach” (Acta Crystallographica Section D: Structural Biology, 2025).

Broadly, the IC50 is the concentration needed to halve the response being measured.

T1 sequence (P53350 33-345): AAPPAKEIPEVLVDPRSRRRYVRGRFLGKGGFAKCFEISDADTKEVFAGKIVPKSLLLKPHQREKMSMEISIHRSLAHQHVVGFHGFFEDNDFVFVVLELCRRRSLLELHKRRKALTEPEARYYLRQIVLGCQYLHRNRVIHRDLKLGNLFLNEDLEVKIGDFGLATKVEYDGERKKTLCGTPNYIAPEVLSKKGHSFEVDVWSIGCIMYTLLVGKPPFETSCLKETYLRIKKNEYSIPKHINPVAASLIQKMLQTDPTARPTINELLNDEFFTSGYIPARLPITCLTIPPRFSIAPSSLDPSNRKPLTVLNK

For the compound `CCn1c(=O)c(=CNc2ccnc(N(C)C3CCN(C)CC3)c2)s/c1=C(/C#N)C(=O)NCC(F)(F)F` [compound 1, (2Z)-2-cyano-2-{3-ethyl-5-[({2-[methyl(1-methylpiperidin-4-yl)amino]pyridin-4-yl}amino)methylidene]-4-oxo-1,3-thiazolidin-2-ylidene}-N-(2,2,2-trifluoroethyl)acetamide], the 50% inhibitory concentration (IC50) in test [1] came out at 3.6 ± 2.3 nM.

In test [2], `CCn1c(=C(C#N)C(=O)NCC(F)(F)F)sc(=CNc2cccc(CCN3CCCC3)c2)c1=O` [ZK-Thiazolidinone] yielded an IC50 of 178 ± 52.6 nM.
